Measurements as given in the supplement of paper PMC13386468.

Tests used:
Experiment in all cases: IC50 for competition of protein binding to Kinobeads
Settings in all cases: assay detail: Kinobeads competition in P. falciparum blood-stage lysate
UniProt C0H4V6 = target: UniProt C0H4V6
UniProt C0H586 = target: UniProt C0H586
UniProt C0H5L6 = target: UniProt C0H5L6
UniProt C6KSV0 = target: UniProt C6KSV0
UniProt C6KT34 = target: UniProt C6KT34
UniProt C6KT56 = target: UniProt C6KT56
UniProt O77344 = target: UniProt O77344
UniProt O77375 = target: UniProt O77375
UniProt O96210 = target: UniProt O96210
UniProt O96259 = target: UniProt O96259
UniProt O97247 = target: UniProt O97247
UniProt P27362 = target: UniProt P27362
UniProt Q6ZLZ9 = target: UniProt Q6ZLZ9
UniProt Q8I0U7 = target: UniProt Q8I0U7
UniProt Q8I1N8 = target: UniProt Q8I1N8
UniProt Q8I1X5 = target: UniProt Q8I1X5
UniProt Q8I231 = target: UniProt Q8I231
UniProt Q8I2H3 = target: UniProt Q8I2H3
UniProt Q8I2R0 = target: UniProt Q8I2R0
UniProt Q8I2X4 = target: UniProt Q8I2X4
UniProt Q8I320 = target: UniProt Q8I320
UniProt Q8I3X2 = target: UniProt Q8I3X2
UniProt Q8I3Y8 = target: UniProt Q8I3Y8
UniProt Q8I431 = target: UniProt Q8I431
UniProt Q8I479 = target: UniProt Q8I479
UniProt Q8I487 = target: UniProt Q8I487
UniProt Q8I4W4 = target: UniProt Q8I4W4
UniProt Q8I510 = target: UniProt Q8I510
UniProt Q8I535 = target: UniProt Q8I535
UniProt Q8I5C6 = target: UniProt Q8I5C6
UniProt Q8I5H9 = target: UniProt Q8I5H9
UniProt Q8IAR3 = target: UniProt Q8IAR3
UniProt Q8IAV1 = target: UniProt Q8IAV1
UniProt Q8IB72 = target: UniProt Q8IB72
UniProt Q8ID42 = target: UniProt Q8ID42
UniProt Q8ID85 = target: UniProt Q8ID85
UniProt Q8IDF9 = target: UniProt Q8IDF9
UniProt Q8IDS6 = target: UniProt Q8IDS6
UniProt Q8IEH3 = target: UniProt Q8IEH3
UniProt Q8IHT3 = target: UniProt Q8IHT3
UniProt Q8II62 = target: UniProt Q8II62
UniProt Q8IIG7 = target: UniProt Q8IIG7
UniProt Q8IIL5 = target: UniProt Q8IIL5
UniProt Q8IJA0 = target: UniProt Q8IJA0
UniProt Q8IJQ9 = target: UniProt Q8IJQ9
UniProt Q8IKI9 = target: UniProt Q8IKI9
UniProt Q8IKL1 = target: UniProt Q8IKL1
UniProt Q8ILP6 = target: UniProt Q8ILP6
UniProt Q8ILT0 = target: UniProt Q8ILT0
UniProt Q8ILW8 = target: UniProt Q8ILW8
UniProt Q8ILW9 = target: UniProt Q8ILW9

Measured: IC50
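Note: native unpurified kinases from lysate captured on beads bearing immobilized kinase inhibitors, with bead-bound kinases quantified by mass spectrometry across compound doses.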

UniProt Q8IIG7, sequence (Q8IIG7 whole entry): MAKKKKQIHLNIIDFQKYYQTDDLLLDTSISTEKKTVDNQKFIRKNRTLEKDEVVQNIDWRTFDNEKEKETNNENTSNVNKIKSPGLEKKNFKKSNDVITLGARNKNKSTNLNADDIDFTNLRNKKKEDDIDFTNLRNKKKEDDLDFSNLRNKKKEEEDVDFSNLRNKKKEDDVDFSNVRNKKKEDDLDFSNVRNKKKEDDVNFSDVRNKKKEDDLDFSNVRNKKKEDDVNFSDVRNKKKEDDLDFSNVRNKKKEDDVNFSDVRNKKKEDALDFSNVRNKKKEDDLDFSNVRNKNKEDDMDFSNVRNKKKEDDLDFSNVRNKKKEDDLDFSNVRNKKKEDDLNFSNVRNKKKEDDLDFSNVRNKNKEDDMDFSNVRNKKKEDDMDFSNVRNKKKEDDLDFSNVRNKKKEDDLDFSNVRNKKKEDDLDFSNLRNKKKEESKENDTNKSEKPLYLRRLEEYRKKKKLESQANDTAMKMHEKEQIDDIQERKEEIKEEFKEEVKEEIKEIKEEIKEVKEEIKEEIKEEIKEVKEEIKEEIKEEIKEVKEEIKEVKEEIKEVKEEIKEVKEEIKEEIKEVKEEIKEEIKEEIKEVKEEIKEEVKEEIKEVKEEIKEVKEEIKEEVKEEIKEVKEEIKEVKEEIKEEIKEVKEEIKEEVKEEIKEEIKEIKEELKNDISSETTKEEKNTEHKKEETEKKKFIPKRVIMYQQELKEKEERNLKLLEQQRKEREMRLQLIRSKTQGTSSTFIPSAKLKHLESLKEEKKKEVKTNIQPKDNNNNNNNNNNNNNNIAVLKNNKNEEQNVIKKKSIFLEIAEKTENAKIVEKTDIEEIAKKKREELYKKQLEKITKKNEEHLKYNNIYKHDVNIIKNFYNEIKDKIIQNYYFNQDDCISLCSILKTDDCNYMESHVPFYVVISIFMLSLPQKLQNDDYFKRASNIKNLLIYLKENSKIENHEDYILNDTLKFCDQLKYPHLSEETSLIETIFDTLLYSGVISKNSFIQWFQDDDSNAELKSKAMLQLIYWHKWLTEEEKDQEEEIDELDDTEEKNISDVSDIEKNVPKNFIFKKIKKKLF
UniProt P27362, sequence (P27362 whole entry): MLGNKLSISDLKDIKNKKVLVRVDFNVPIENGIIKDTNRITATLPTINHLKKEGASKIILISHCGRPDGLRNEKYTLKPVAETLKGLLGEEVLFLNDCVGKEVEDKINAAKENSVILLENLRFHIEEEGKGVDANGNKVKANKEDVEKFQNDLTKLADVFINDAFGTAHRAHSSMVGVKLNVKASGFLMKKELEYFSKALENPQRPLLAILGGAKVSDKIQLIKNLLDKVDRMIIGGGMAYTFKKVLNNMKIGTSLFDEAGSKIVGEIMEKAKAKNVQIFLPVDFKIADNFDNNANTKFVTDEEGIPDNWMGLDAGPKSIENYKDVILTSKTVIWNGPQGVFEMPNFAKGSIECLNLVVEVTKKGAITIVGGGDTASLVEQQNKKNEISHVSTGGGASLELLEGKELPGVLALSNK
UniProt Q8ILW9, sequence (Q8ILW9 whole entry): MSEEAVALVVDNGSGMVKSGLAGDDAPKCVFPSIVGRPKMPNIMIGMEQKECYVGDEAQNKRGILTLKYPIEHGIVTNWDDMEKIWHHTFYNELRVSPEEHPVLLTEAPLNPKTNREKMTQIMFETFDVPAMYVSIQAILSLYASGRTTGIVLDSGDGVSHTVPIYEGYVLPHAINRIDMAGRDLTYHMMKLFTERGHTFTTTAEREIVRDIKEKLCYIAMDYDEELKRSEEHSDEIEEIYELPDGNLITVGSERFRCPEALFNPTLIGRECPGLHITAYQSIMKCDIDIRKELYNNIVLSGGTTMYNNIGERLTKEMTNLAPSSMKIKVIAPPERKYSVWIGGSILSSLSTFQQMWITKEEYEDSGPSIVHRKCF
UniProt Q8I3Y8, sequence (Q8I3Y8 whole entry): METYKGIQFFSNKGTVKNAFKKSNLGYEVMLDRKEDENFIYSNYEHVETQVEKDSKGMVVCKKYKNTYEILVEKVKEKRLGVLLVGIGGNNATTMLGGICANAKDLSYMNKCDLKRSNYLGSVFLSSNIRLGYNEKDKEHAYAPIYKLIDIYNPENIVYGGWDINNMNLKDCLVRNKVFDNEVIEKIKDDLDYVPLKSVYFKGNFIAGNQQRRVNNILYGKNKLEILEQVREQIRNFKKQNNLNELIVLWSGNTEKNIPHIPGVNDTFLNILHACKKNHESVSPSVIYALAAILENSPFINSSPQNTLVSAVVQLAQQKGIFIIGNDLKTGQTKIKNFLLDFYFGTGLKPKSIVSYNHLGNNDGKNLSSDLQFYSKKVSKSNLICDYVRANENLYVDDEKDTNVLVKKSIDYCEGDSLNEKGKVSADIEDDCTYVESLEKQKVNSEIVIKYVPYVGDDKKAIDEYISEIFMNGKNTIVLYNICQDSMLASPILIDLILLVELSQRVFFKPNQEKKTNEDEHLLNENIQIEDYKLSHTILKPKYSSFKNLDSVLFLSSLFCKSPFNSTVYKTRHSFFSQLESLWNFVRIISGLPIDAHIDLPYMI
UniProt C0H4V6, sequence (C0H4V6 whole entry): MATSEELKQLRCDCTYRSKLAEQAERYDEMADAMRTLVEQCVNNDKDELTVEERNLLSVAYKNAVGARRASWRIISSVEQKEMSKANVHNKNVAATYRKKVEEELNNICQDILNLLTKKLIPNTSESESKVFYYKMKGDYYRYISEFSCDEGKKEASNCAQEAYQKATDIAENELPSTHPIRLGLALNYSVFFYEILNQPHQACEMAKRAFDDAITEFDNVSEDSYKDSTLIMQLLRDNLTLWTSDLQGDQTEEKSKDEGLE

O=c1[nH]c2ccc(Cl)cc2c(NC2CN3CCC2CC3)c1-c1nc2ccccc2[nH]1 (stereo unspecified) [CHIR-124]
2.95 µM: UniProt O77344
< 0.0823 µM: UniProt Q8I535
14 µM: UniProt Q8I5H9
> 20 µM: all other assays above
